Drawing on ChEMBL document CHEMBL1124202, “Synthesis and evaluation of multisubstrate inhibitors of an oncogene-encoded tyrosine-specific protein kinase. 2” (J Med Chem, 1988), this text covers IC50 for eight compounds.

The target of this experiment is T1, Tyrosine-protein kinase transforming protein Abl (Abelson murine leukemia virus, UniProt P00521).
T1 sequence (P00521 whole entry): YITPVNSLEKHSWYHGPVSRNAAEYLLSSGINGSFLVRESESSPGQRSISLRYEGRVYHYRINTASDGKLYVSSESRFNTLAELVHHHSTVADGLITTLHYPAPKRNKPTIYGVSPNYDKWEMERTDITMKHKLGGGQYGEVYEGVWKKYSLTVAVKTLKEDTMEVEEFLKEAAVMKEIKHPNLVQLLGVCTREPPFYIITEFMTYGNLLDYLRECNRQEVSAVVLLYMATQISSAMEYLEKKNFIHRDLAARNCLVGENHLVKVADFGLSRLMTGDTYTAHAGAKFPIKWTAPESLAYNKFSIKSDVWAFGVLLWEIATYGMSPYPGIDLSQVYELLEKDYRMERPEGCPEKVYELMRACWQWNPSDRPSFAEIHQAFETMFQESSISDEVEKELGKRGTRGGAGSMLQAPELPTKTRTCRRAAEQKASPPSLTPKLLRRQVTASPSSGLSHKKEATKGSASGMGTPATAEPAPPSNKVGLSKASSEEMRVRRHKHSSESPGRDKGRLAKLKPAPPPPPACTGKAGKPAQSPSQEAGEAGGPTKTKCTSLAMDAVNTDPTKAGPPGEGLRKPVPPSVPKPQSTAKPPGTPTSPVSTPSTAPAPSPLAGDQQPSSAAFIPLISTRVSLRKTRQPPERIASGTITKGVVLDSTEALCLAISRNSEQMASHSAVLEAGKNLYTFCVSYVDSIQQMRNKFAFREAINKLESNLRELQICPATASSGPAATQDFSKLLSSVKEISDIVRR
Description: Inhibition of p60v-abl tyrosine kinase from Abelson murine leukemia virus.
`Cc1ccc(NP(=O)(O)OP(=O)(O)OP(=O)(O)OP(=O)(O)OC[C@H]2O[C@@H](n3cnc4c(N)ncnc43)[C@H](O)[C@@H]2O)cc1` showed an IC50 of 16 µM.
Turning to `CC(=O)NC(Cc1ccc(NP(=O)(O)OP(=O)(O)OP(=O)(O)OP(=O)(O)OC[C@H]2O[C@@H](n3cnc4c(N)ncnc43)[C@H](O)[C@@H]2O)cc1)C(N)=O` (stereo partly drawn), half-maximal inhibition (IC50) was put at 110 µM.
On to `Nc1ncnc2c1ncn2[C@@H]1O[C@H](COP(=O)(O)OP(=O)(O)OP(=O)(O)Oc2ccccc2)[C@@H](O)[C@H]1O`, for which inhibition was half-maximal at 13 µM (IC50).
Regarding `Cc1ccc(NP(=O)(O)OP(=O)(O)OP(=O)(O)OC[C@H]2O[C@@H](n3cnc4c(N)ncnc43)[C@H](O)[C@@H]2O)cc1`, half-maximal inhibition (IC50) was put at 150 µM.
`CC(=O)NC(Cc1ccc(NP(=O)(O)OP(=O)(O)OP(=O)(O)OC[C@H]2O[C@@H](n3cnc4c(N)ncnc43)[C@H](O)[C@@H]2O)cc1)C(N)=O` (stereo partly drawn) came in with an IC50 of 44 µM.
The compound `Nc1ncnc2c1ncn2[C@@H]1O[C@H](COP(=O)(O)OP(=O)(O)OP(=O)(O)OP(=O)(O)Oc2ccccc2)[C@@H](O)[C@H]1O` returned an IC50 of 41 µM.
`CC(=O)NCCNP(=O)(O)OP(=O)(O)OP(=O)(O)OC[C@H]1O[C@@H](n2cnc3c(N)ncnc32)[C@H](O)[C@@H]1O` registered an IC50 of 25 µM.
With `COc1ccc(CNP(=O)(O)OP(=O)(O)OP(=O)(O)OC[C@H]2OC(n3cnc4c(N)ncnc43)[C@H](O)[C@@H]2O)cc1` (stereo partly drawn), it took 90 µM to reach half-maximal inhibition (IC50).

For orientation: IC50 means the concentration needed to halve the response being measured. Low readings indicate higher potency, high ones lower potency.
